Experimental findings from ChEMBL document CHEMBL1201862, “PubChem BioAssay data set” (2004) are described below.

Among the test systems are COLO 205; EKVX; HCC 2998; KM12; M14; MDA-N; NCI-H226; NCI-H522; NCI/ADR-RES; OVCAR-3; SF-539; SK-MEL-2; SK-OV-3; SNB-75; T47D; U-251; UACC-62; Hs-578T; LOX IMVI; MOLT-4.
What all share (experiment): DTP human tumour cell line panel, 48 h

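Method: 48-hour compound exposure of cells in 96-well plates, five concentrations, linear interpolation of endpoints. GI50: concentration for 50% inhibition of growth.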 Active and inactive are the calls of the source. Cut-off read from the data, not from the text of the source: active = GI50 up to about 1.1 µM and inactive = higher.

As to `C=CCOC(=O)CCCCCCCCCCCCCCCOC(=O)c1c(CCC[C@@H](C)O[Si](C)(C)C(C)(C)C)nc([O-])[n+]2c1CC[C@H]2CC1(CC/C=C\[C@H](CC)O[Si](C(C)C)(C(C)C)C(C)C)OCCO1`, the GI50 (in general, the concentration at which growth is held to half of that of the control) in the assay with COLO 205 is > 100 µM (inactive); in the assay with EKVX, > 100 µM (inactive); with HCC 2998, 73.8 µM (inactive); in the assay with KM12, 85.9 µM (inactive); in the assay on M14, > 100 µM (inactive); with MDA-N it was 60.8 µM (inactive). The GI50 is > 100 µM (inactive) in the assay on NCI-H226; > 100 µM (inactive) in the assay on NCI-H522; > 100 µM (inactive) in the assay with NCI/ADR-RES; 50.8 µM (inactive) in the assay with OVCAR-3; > 100 µM (inactive) in the assay on SF-539; 37.2 µM (inactive) in the assay on SK-MEL-2. The GI50 in the assay on SK-OV-3 is > 100 µM (inactive); in the assay on SNB-75 it was > 100 µM (inactive); with T47D, > 100 µM (inactive); in the assay with U-251, 17.2 µM (inactive); in the assay with UACC-62 it was 30.4 µM (inactive).

As for `C=C(C)[C@H]1CC(=O)/C(C)=C\CC/C(C)=C/CC[C@@]2(C)O[C@@H]2C1`, the GI50 was 16.5 µM (inactive) in the assay with COLO 205; 34.5 µM (inactive) in the assay with HCC 2998; 30.9 µM (inactive) in the assay with Hs-578T; 20.8 µM (inactive) in the assay on KM12; 10.9 µM (inactive) with LOX IMVI; 32.5 µM (inactive) with M14. The GI50 in the assay with MDA-N is 35.2 µM (inactive); in the assay on MOLT-4, 31.8 µM (inactive); in the assay with NCI/ADR-RES it was 21.8 µM (inactive); in the assay with OVCAR-3 it was 17 µM (inactive); with SF-539 it was 20 µM (inactive); with SK-MEL-2, 35.8 µM (inactive). Further, the GI50 with SK-OV-3 is 24.4 µM (inactive); with SNB-75, 41.4 µM (inactive); with U-251 it was 22.5 µM (inactive); in the assay with UACC-62 it was 8.47 µM (inactive).

For the molecule `C(=N\NC1=NCCCN1)/c1ccc(-c2cn3cc(/C=N/NC4=NCCCN4)ccc3n2)cc1`, the GI50 in the assay on COLO 205 is > 100 µM (inactive); in the assay on EKVX, 45.9 µM (inactive); in the assay with HCC 2998, > 53.3 µM (inactive); with KM12, > 58.1 µM (inactive); in the assay with LOX IMVI, > 100 µM (inactive); with M14 it was > 81.1 µM (inactive). Besides, the GI50 in the assay on MDA-N is > 100 µM (inactive); with MOLT-4, 5.73 µM (inactive); in the assay with NCI-H226, 45.3 µM (inactive); in the assay on NCI-H522, > 100 µM (inactive); in the assay on NCI/ADR-RES it was > 100 µM (inactive); in the assay on OVCAR-3, > 100 µM (inactive). Besides, the GI50 in the assay on SF-539 was > 61.7 µM (inactive); with SK-MEL-2 it was > 100 µM (inactive); in the assay with SK-OV-3, > 100 µM (inactive); in the assay with SNB-75, > 81.5 µM (inactive); in the assay with T47D, > 100 µM (inactive); in the assay with U-251, > 88.9 µM (inactive). Also, the GI50 in the assay on UACC-62 was > 100 µM (inactive).

Turning to `Nc1ccc(-c2nc3ccccc3s2)cc1F`, the GI50 in the assay on COLO 205 was 20.9 µM (inactive); with EKVX it was 2.59 µM (inactive); in the assay with Hs-578T, 29.1 µM (inactive); in the assay on KM12, 28.5 µM (inactive); in the assay on LOX IMVI, 44.7 µM (inactive); in the assay on M14, 26.8 µM (inactive). Further, the GI50 in the assay with MDA-N was 37.2 µM (inactive); in the assay on MOLT-4 it was 10.8 µM (inactive); in the assay on NCI-H226, < 0.01 µM (active); with NCI-H522 it was 20.9 µM (inactive); in the assay with NCI/ADR-RES, 28.8 µM (inactive); with OVCAR-3, 18.5 µM (inactive). The GI50 in the assay on SK-MEL-2 was 19.2 µM (inactive); in the assay on SK-OV-3, 38.5 µM (inactive); in the assay on SNB-75, 21.5 µM (inactive); in the assay with U-251, 15.4 µM (inactive); in the assay with UACC-62 it was 20.7 µM (inactive).

On to `O=C(O)c1cccc(S(=O)(=O)NN2C(=O)CSC2c2ccccc2)c1` (stereo unspecified), for which the GI50 in the assay with COLO 205, in the assay on EKVX, in the assay on HCC 2998, in the assay with Hs-578T, in the assay on KM12 and in the assay with LOX IMVI was > 100 µM (inactive) in each case. The GI50 is > 100 µM (inactive) in the assay with M14; 74.6 µM (inactive) with MDA-N; > 100 µM (inactive) with MOLT-4; > 100 µM (inactive) in the assay with NCI-H226; 27.6 µM (inactive) in the assay on NCI-H522; > 100 µM (inactive) in the assay on OVCAR-3. Besides, the GI50 in the assay on SF-539, with SK-MEL-2, in the assay with SK-OV-3, in the assay on SNB-75, in the assay with T47D and with U-251 was > 100 µM (inactive) each time. For the same molecule, the GI50 with UACC-62 was > 100 µM (inactive).

In the case of `CCn1c2c(n(CC)c1=S)-c1c(n(CC)c(=S)n1CC)SSSS2`, the GI50 was 5.53 µM (inactive) in the assay on COLO 205; 14.5 µM (inactive) in the assay on EKVX; 25.4 µM (inactive) in the assay with HCC 2998; 0.308 µM (active) with Hs-578T; 19.2 µM (inactive) with KM12; 9.79 µM (inactive) with LOX IMVI. Moreover, the GI50 in the assay on M14 is 6.35 µM (inactive); in the assay with MDA-N, > 10 µM (inactive); in the assay on MOLT-4 it was 2.31 µM (inactive); in the assay with NCI-H226, 31.8 µM (inactive); with NCI-H522, 1.88 µM (inactive); in the assay with OVCAR-3, 7.23 µM (inactive). Besides, the GI50 was 12.2 µM (inactive) in the assay on SF-539; 16.6 µM (inactive) in the assay on SK-MEL-2; > 67.3 µM (inactive) in the assay on SK-OV-3; 1.91 µM (inactive) in the assay with SNB-75; 1.63 µM (inactive) in the assay on T47D; 22.2 µM (inactive) with U-251. Further, in the assay on UACC-62, the GI50 is 10.7 µM (inactive).

For the molecule `CC(C)(C)[Si](C)(C)OCC#C[C@@]1(O)CCCCC1CC(Sc1ccccc1)Sc1ccccc1` (stereo partly specified), the GI50 in the assay with COLO 205 is 16.3 µM (inactive); in the assay on EKVX, 16.4 µM (inactive); in the assay on HCC 2998, 15.6 µM (inactive); in the assay with KM12, 21.9 µM (inactive); in the assay with LOX IMVI, 17.3 µM (inactive); with M14, 18.2 µM (inactive). Moreover, the GI50 is 18.2 µM (inactive) in the assay on MDA-N; 11.6 µM (inactive) with MOLT-4; 15.3 µM (inactive) in the assay with NCI-H226; 11.4 µM (inactive) in the assay with NCI-H522; 15 µM (inactive) in the assay with NCI/ADR-RES; 12.9 µM (inactive) in the assay with OVCAR-3. Besides, the GI50 with SK-MEL-2 was 15.8 µM (inactive); in the assay with SK-OV-3 it was 15.7 µM (inactive); in the assay on SNB-75, 14.8 µM (inactive); in the assay with T47D, 10.7 µM (inactive); in the assay with U-251, 13.3 µM (inactive); with UACC-62, 12.9 µM (inactive).

With `COc1ccc(/C=C2\C[C@H]3[C@@H]4CC=C5C[C@@H](O)CC[C@]5(C)[C@H]4CC[C@]3(C)\C2=N\O)cc1`, the GI50 in the assay with COLO 205 is 10 µM (inactive); with EKVX it was 1.41 µM (inactive); with Hs-578T it was 10 µM (inactive); in the assay with KM12 it was 16.8 µM (inactive); in the assay on LOX IMVI, 11.6 µM (inactive); in the assay with M14 it was 12.7 µM (inactive). Further, the GI50 is 18.8 µM (inactive) in the assay with MDA-N; 5.89 µM (inactive) in the assay on MOLT-4; 19.3 µM (inactive) with NCI-H226; 4.97 µM (inactive) with NCI-H522; 19.4 µM (inactive) in the assay with NCI/ADR-RES; 6.89 µM (inactive) in the assay with OVCAR-3. Also, the GI50 in the assay on SF-539 is 21.8 µM (inactive); in the assay on SK-MEL-2, 15.6 µM (inactive); in the assay with SK-OV-3, 34.9 µM (inactive); with T47D it was 1.26 µM (inactive); in the assay with U-251, 10.5 µM (inactive); in the assay with UACC-62, 17.7 µM (inactive).

In the case of `NC(=S)N/N=C1\CCc2ccccc2C1`, the GI50 is > 100 µM (inactive) with COLO 205; 27 µM (inactive) with EKVX; > 100 µM (inactive) with HCC 2998; > 100 µM (inactive) in the assay with KM12; > 100 µM (inactive) in the assay on LOX IMVI; > 100 µM (inactive) with M14. Further, the GI50 in the assay on MDA-N was > 100 µM (inactive); in the assay with MOLT-4, > 100 µM (inactive); with NCI-H226, 32.2 µM (inactive); in the assay with NCI-H522, 55.3 µM (inactive); in the assay on NCI/ADR-RES, > 100 µM (inactive); in the assay with OVCAR-3, > 100 µM (inactive). The GI50 with SF-539 is > 100 µM (inactive); with SK-OV-3, > 100 µM (inactive); in the assay with T47D, 13 µM (inactive); with U-251, > 100 µM (inactive); in the assay with UACC-62 it was 55 µM (inactive).

For `Cn1nc2n(c1=O)CCCN2`, the GI50 in the assay with COLO 205, in the assay on EKVX, in the assay on HCC 2998, in the assay with Hs-578T, in the assay with KM12 and with LOX IMVI was > 100 µM (inactive) throughout. Also, the GI50 in the assay on MDA-N, with NCI-H226, with NCI-H522, in the assay on NCI/ADR-RES, with OVCAR-3 and in the assay with SF-539 was > 100 µM (inactive) each time. Besides, the GI50 in the assay with SNB-75 and with U-251 was > 100 µM (inactive) each time.

Consider `COC(=O)C1=CS/C(=C2\S[C@@H]3[C@H](S2)[C@H]2C=C[C@@H]3C2)S1`, for which the GI50 with COLO 205 was 32.8 µM (inactive); in the assay with Hs-578T, 81.3 µM (inactive); with KM12 it was > 100 µM (inactive); in the assay on LOX IMVI, 13.1 µM (inactive); in the assay with M14 it was 48.3 µM (inactive); in the assay on MDA-N it was 3.49 µM (inactive). The GI50 was 5.19 µM (inactive) in the assay with MOLT-4; 87.7 µM (inactive) in the assay with NCI-H226; 9.66 µM (inactive) in the assay on NCI/ADR-RES; 33.2 µM (inactive) with OVCAR-3; 6.19 µM (inactive) in the assay on SF-539; 32.5 µM (inactive) in the assay with SK-MEL-2. Moreover, the GI50 with SK-OV-3 was 47 µM (inactive); with SNB-75, 46.1 µM (inactive); in the assay on T47D, > 100 µM (inactive); with U-251, 8.49 µM (inactive); in the assay on UACC-62 it was 12.5 µM (inactive).
